Experimental data: patent US20230158152A1, “PROTEOLYSIS REGULATOR AND METHOD FOR USING SAME” (MEDSHINE DISCOVERY INC., priority 2020, published 2023)

What was measured:
[1] = test system: human lung cancer NCI-H2228 cells subcutaneous xenograft tumor; experiment: In vivo pharmacodynamic study in subcutaneous xenograft tumor NOD SCID mouse model of human lung cancer NCI-H2228 cells; parameters: species or system NOD SCID mice; settings: 50 mg/kg subcutaneous injection once a day
Procedure: Human lung cancer cell NCI-H2228 (ATCC® CRL-5935™) was cultured in vitro in an adherent monolayer in RPMI 1640 medium supplemented with 10% fetal bovine serum, 100 U/mL penicillin and 100 μg/mL streptomycin in an incubator at 37° C. and 5% CO2. Cells were passaged by routine digestion with trypsin-EDTA twice a week. When the cell saturation was 80%-90% and the number met the requirement, the cells are collected, counted, and inoculated.
NOD SCID mice, female, 6-8 weeks old, weighing 18-22 grams.
0.2 mL (10×10^6 cells) of NCI-H2228 cells (with matrigel, v/v 1:1) were subcutaneously inoculated into the right back of each mouse. The administration by group was started when the average tumor volume reached 171 mm^3. One administration cycle comprised seven days, with administration once a day. The assay compounds were administered by subcutaneous injection for a total of four cycles. The subcutaneous injection doses of the assay compounds WX001 and WX002 were both 50 mg/kg. Tumor diameter was measured twice a week with a vernier caliper, and tumor volume was measured in cubic millimeters and calculated by the following formula: V=0.5a×b^2, where a and b are the long and short diameters of the tumor, respectively. The tumor-inhibitory efficacy of the assay compounds was evaluated by using TGI (%). TGI (%) reflects a tumor growth inhibition rate. TGI (%)=[1−(Average tumor volume at the end of administration of a treatment group−Average tumor volume at the beginning of administration of the treatment group)/(Average tumor volume at the end of treatment of a vehicle control group−Average tumor volume at the beginning of treatment of the vehicle control group)]×100%.

[2] = Pharmacokinetics of the compound in mice; type: in vivo, C57BL/6 (C57) mice
Source text: In this study, C57BL male mice were selected as assay animals, and the LC/MS/MS method was used to quantitatively determine the compound concentration at different time points in the plasma of mice administered intravenously or orally with the assay compound, so as to evaluate pharmacokinetic profile of the assay compound in mice.
C57BL/6 (C57) mice (male, 17-20 g, 7-10 weeks old, from Shanghai lingchang).
A clear solution of the assay compound was intravenously injected into C57 mice via tail (fasted overnight) or administered to C57 mice by gavage (fasted overnight). 200 μL of blood was collected from the saphenous vein at 0.0833, 0.25, 0.5, 1, 2, 4, 8 and 24 h after intravenous administration, and placed in an anticoagulant tube (Jiangsu Kangjian Medical Co., Ltd.) supplemented with EDTA-K2. The mixture was thoroughly vortexed at 4° C. and centrifuged at 3200 g for 10 min. Blood was collected from the saphenous vein at 0.25, 0.5, 1, 2, 4, 6, 8 and 24 h after oral gavage administration, and placed in an anticoagulant tube (Jiangsu Kangjian Medical Co., Ltd.) supplemented with EDTA-K2. The mixture was thoroughly vortexed and centrifuged at 3200 g for 10 min. Blood drug concentration was determined by LC-MS/MS, and relevant pharmacokinetic parameters were calculated with the non-compartmental model Linear/log trapezoidal method using Phoenix WinNonlin 6.3 pharmacokinetic software.

[3] = target: T1, Recombinant human-derived ALK (Homo sapiens, UniProt Q9UM73); experiment: Inhibitory activity of compounds against ALK kinase (time-resolved fluorescence resonance energy transfer); type: biochemical; settings: 30 μM ATP, 50 nM ULight-poly GT peptide
T1 construct: BAG10812.1; 1058-1620 (terminal) amino acids; GST (N); made in house
T1 sequence (Q9UM73 1058-1620): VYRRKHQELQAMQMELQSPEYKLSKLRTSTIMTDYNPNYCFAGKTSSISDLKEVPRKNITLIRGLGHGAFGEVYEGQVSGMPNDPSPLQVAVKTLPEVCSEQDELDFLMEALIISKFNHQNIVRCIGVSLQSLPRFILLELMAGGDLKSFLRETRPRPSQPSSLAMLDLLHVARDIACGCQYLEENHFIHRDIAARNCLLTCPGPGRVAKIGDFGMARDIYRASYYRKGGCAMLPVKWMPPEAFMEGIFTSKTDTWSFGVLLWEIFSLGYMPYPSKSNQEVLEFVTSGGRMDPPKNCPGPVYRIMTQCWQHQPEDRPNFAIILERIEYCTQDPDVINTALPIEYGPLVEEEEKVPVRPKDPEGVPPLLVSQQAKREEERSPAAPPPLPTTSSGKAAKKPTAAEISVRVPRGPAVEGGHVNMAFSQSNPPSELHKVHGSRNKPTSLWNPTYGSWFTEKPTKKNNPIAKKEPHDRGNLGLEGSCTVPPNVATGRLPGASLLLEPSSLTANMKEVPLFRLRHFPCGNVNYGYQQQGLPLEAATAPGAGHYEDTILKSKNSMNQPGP
Procedure: The inhibitory activity of the compounds on ALK kinase was detected by time-resolved fluorescence resonance energy transfer method, that is, the ratio of fluorescence signals at 665 nm/615 nm was used to represent the activity of the enzyme.
Assay buffer solution: 50 mM 2-[4-(2-hydroxyethyl)-1-piperazinyl]ethanesulfonic acid buffer solution (HEPES) (pH 7.5), 10 mM MgCl2, 1 mM EDTA 0.01%, polyoxyethylene lauryl ether (Brij 35), 2 mM dithiothreitol (DTT).
Enzyme: Recombinant human-derived ALK (gene accession number: BAG10812.1; 1058-1620 (terminal) amino acids) was expressed with a N-terminal GST fusion protein (90 kDa) using a baculovirus expression system.
Enzyme substrate: 50 nM ULight-poly GT polypeptide.
Detection: europium-labeled anti-phosphotyrosine (PT66) antibody.
1. Compounds dissolved in 100% DMSO were added to 384-well plates by acoustic technique; 2. Recombinant human-derived ALK enzyme and enzyme substrate (50 nM ULight-poly GT peptide) or zymolyte (30 μM ATP) were dissolved in freshly prepared assay buffer; 3. The above ALK enzyme and enzyme substrate in the buffer solution were transferred to reaction wells; 4. Then, the zymolyte in the buffer solution was added to the above reaction wells to initiate the reaction; 5. The plate was incubated at room temperature for 1 hour; 6. The detection mixture (PT66 antibody and EDTA) was added to terminate the reaction, and the mixture was incubated at room temperature for 60 minutes; 7. Then, the plate was read using a microplate reader to obtain the ratio of fluorescence signals at 665 nm/615 nm.
Data analysis: Emission ratio (665 nm/615 nm) in the original data was involved in the calculation of the inhibition rate. The concentration and inhibition rate were analyzed using XLfit software 205 mode (4 Parameters Logistic Model) to obtain IC50 value and curve.

[4] = male, C57BL/6, mouse, plasma, intravenous injection (2 mg/kg)

Area under the curve (0-inf) ([2]; intravenous injection (2 mg/kg)): 3.69 µM·h
clearance [2, 4]: 0.618 L/h/kg
half-life [2, 4]: 1.74 h
bioavailability ([2]; male, C57BL/6, mouse, plasma, oral (10 mg/kg), read-out: Bioavailability F): 11.7%
Area under the curve (0-inf) ([2]; oral (10 mg/kg)): 2.33 µM·h
Peak concentration ([2]; oral (10 mg/kg)): 0.68 µM
Time to peak ([2]; oral (10 mg/kg)): 0.75 h
IC50 [3]: 21.8 nM
Compound: Cc1cc(Nc2ncc(Cl)c(Nc3ccccc3S(=O)(=O)C(C)C)n2)c(OC(C)C)cc1C1CCN(CC(=O)NCCOc2ccc3occ(C4CCC(=O)NC4=O)c3c2)CC1 (centres unmarked) [WX001]
Tumor volume (Day 1) ([1]; Day 1): 172 ± 12 mm^3
TGI (Day 28) ([1]; Day 28): 111.22%
Tumor volume (Day 28) ([1]; Day 28): 102 ± 5 mm^3
